Data published in the CombiSolv-Exp solvation set (Vermeire and Green 2021).

Test: solvent given as SMILES

O=c1c2ccccc2sc2ccccc12
Details	solvation free energy, 298 K [kcal/mol]
in C1CCOC1	-13.2
in C1COCCO1	-12.9
in CC(C)CC(C)(C)C	-10.7
in CC(C)CCO	-11.8
in CC(C)CO	-11.7
in CC(C)O	-11.9
in CC(C)OC(C)C	-11.6
in CC(C)OCCO	-12.3
in CCC(C)O	-11.8
in CCCC(=O)OC	-12.5
in CCCC(C)CO	-11.9
in CCCC(C)O	-11.9
in CCCCC(CC)CO	-12
in CCCCCC	-10.9
in CCCCCCC	-11
in CCCCCCCC	-11.1
in CCCCCCCCC=CCCCCCCCC(=O)OCC(COC(=O)CCCCCCCC=CCCCCCCCC)OC(=O)CCCCCCCC=CCCCCCCCC	-11.8
in CCCCCCCCCCO	-12.1
in CCCCCCCCO	-12.1
in CCCCCCCO	-12
in CCCCCCO	-12
in CCCCCO	-11.9
in CCCCCOC(C)=O	-12.4
in CCCCO	-11.9
in CCCCOC(C)=O	-12.4
in CCCCOCCCC	-11.7
in CCCCOCCO	-12.4
in CCCO	-11.8
in CCCOCCO	-12.4
in CCO	-11.9
in CCOC(C)=O	-12.5
in CCOCCO	-12.4
in CO	-11.5
in COC(C)(C)C	-11.9
in COC(C)=O	-12.6
in Cc1ccc(C)cc1	-12.6
in Cc1cccc(C)c1	-12.6
in Cc1ccccc1C	-12.7
in O	-6.9

CC1=CCC2CC3C(C)CCC13C2(C)C (stereo unspecified)
Details	solvation free energy, 298 K [kcal/mol]
in O	0.78

CC(=O)Cc1ccccc1
Details	solvation free energy, 298 K [kcal/mol]
in O	-5.62

CCCI
Details	solvation free energy, 298 K [kcal/mol]
in C=CCCCCCCCCCCCCCC	-4.16
in ClC(Cl)(Cl)Cl	-4.97
in O	-0.56

CCN(CC)c1c([N+](=O)[O-])cc(C(F)(F)F)c(N)c1[N+](=O)[O-]
Details	solvation free energy, 298 K [kcal/mol]
in O	-5.66

CC(=O)OCC1=CCC2CC1C2(C)C (stereo unspecified)
Details	solvation free energy, 298 K [kcal/mol]
in O	-3.6

O=S=O
Details	solvation free energy, 298 K [kcal/mol]
in C1CCC2CCCCC2C1	-1.26
in C1CCCCC1	-1.23
in C1CCOC1	-3.93
in C1COCCO1	-3.41
in CC1COC(=O)O1	-3.16
in CC#N	-3.25
in CC(=O)N(C)C	-3.52
in CC(C)=O	-3.52
in CC(C)CC(C)(C)C	-1.17
in CCCCCCC	-1.36
in CCCCCCCC	-1.01
in CCCCCCCCCCCCCCCC	-1.1
in CCOC(C)=O	-3.22
in CN1CCCC1=O	-3.11
in CO	-2.84
in COC(=O)CC#N	-2.82
in COC(C)=O	-3.08
in COCCOCCO	-4.09
in COCCOCCOC	-4.02
in COCCOCCOCCOC	-3.89
in COCCOCCOCCOCCOC	-3.85
in CS(C)=O	-4.71
in ClCCCl	-2.55
in N#Cc1ccccc1	-2.59
in O	-2.07
in OCCO	-2.88
in OCc1ccccc1	-2.8
in c1ccncc1	-4.82

CC(=O)OC1CCC2(C)C(=CCC3C2CCC2(C)C(C(C)CCCC(C)C)CCC32)C1 (stereo unspecified)
Details	solvation free energy, 298 K [kcal/mol]
in O	-5.48

Clc1ccc(C(c2ccc(Cl)cc2)C(Cl)Cl)cc1
Details	solvation free energy, 298 K [kcal/mol]
in CCCCCCCCO	-13.7
in O	-4.88

COC(=O)c1cc(OC)c(O)c(-c2cc(C(=O)OC)cc(OC)c2O)c1
Details	solvation free energy, 298 K [kcal/mol]
in CCC(C)=O	-20.8
in CCCO	-20.8
in ClC=CCl	-21.7
in O	-17.3

CC(C)(C)C
Details	solvation free energy, 298 K [kcal/mol]
in C1COCCO1	-2.16
in CC(C)=O	-2.22
in CCCCCC	-2.77
in CCO	-2.2
in CO	-1.91
in O	2.66

II
Details	solvation free energy, 298 K [kcal/mol]
in Brc1ccccc1	-6.1
in CC(C)CC(C)(C)C	-4.5
in CCCCCC	-4.67
in CCCCCCC	-4.66
in CCCCCl	-5.63
in CCO	-6.27
in Cc1ccc(C)cc1	-6.21
in Cc1cccc(C)c1	-6.25
in Cc1ccccc1C	-6.23
in ClC(Cl)(Cl)Cl	-5.25
in ClC(Cl)Cl	-5.73
in ClCCCl	-5.72
in ClCCl	-5.62
in Clc1ccccc1	-5.81
in O	-2.54

COC(C)C
Details	solvation free energy, 298 K [kcal/mol]
in O	-2.01

Cc1ccccc1C
Details	solvation free energy, 298 K [kcal/mol]
in CC#N	-5.37
in CC(C)CC(C)(C)C	-5.5
in CC(O)CO	-4.31
in CCCCCCC	-5.51
in CCCCCCCCCCCCCCCC	-5.38
in CCCCCCCCO	-5.3
in CCCCCO	-5.18
in CCCCOC(C)=O	-6.22
in CNC=O	-5.02
in COCCO	-5.25
in ClCCCl	-6.13
in NC=O	-3.55
in NCCO	-4.08
in O	-0.89
in O=CN1CCOCC1	-5.27
in O=Cc1ccco1	-5.37
in OCCO	-3.65
in OCCOCCO	-4.48
in OCCOCCOCCO	-4.61

CC[N+](=O)[O-]
Details	solvation free energy, 298 K [kcal/mol]
in C=CCCCCCCCCCCCCCC	-3.33
in CCC(C)=O	-5.25
in CCCC(C)C	-4.09
in CCCCCCC	-3.34
in CCCCCCCC	-3.37
in CCCCCCCCCCCCCCCC	-3.17
in CCCCCCCCO	-3.93
in COC(C)=O	-5.46
in O	-3.72
in [2H]O[2H]	-3.75

C=C(C)C(=C)C
Details	solvation free energy, 298 K [kcal/mol]
in CN1CCCC1=O	-3.55
in CN(C)C=O	-3.53
in O	0.4
in OCCO	-1.73
in OCCOCCO	-2.47
in OCCOCCOCCO	-2.49

C=CCCC=C
Details	solvation free energy, 298 K [kcal/mol]
in C=CCCCCCCCCCCCCCC	-3.36
in CCCCCCCCCCCCCCCC	-3.48
in CN1CCCC1=O	-3.23
in CS(C)=O	-2.74
in O	0.97

CC(C)=CCCC1(C)C2CC3C(C2)C31C (stereo unspecified)
Details	solvation free energy, 298 K [kcal/mol]
in O	0.55

CCCCOC(=O)c1ccccc1O
Details	solvation free energy, 298 K [kcal/mol]
in O	-3.51

COc1ccc(O)cc1
Details	solvation free energy, 298 K [kcal/mol]
in CCCCCC	-7.15

Nc1ccc(-c2ccc(N)cc2)cc1
Details	solvation free energy, 298 K [kcal/mol]
in Cc1ccccc1C	-15.7

CC(C)(C)Cl
Details	solvation free energy, 298 K [kcal/mol]
in Brc1cccc2ccccc12	-3.15
in Brc1ccccc1	-3.44
in C1CCCCC1	-3.64
in C1CCOCC1	-3.82
in C1COCCO1	-3.36
in C=CCCCCCCCCCCCCCC	-3.07
in CC(=O)N(C)C	-3.1
in CC(=O)OCc1ccccc1	-3.28
in CC(C)(C)O	-2.95
in CC(C)=O	-3.46
in CC(C)CC(C)(C)C	-3.29
in CC(C)OC(C)C	-3.53
in CC(O)C(C)O	-2.37
in CC(O)CCO	-2.14
in CC(O)CO	-2.29
in CCC(C)=O	-3.66
in CCC(O)CO	-2.76
in CCCCCC	-3.43
in CCCCCCC	-3.47
in CCCCCCCC	-3.35
in CCCCCCO	-3.14
in CCCCCO	-3.23
in CCCCO	-3.08
in CCO	-3.22
in CCOC(C)=O	-3.66
in CCOCC	-3.38
in CN1CCCC1=O	-2.97
in CN(C)C=O	-3.15
in CNC=O	-3.02
in CO	-3.11
in COC(C)(C)C	-3.7
in COCCO	-3.3
in Cc1ccc(C)cc1	-3.58
in ClC(Cl)(Cl)Cl	-3.66
in ClCCCl	-3.69
in Clc1ccccc1	-3.56
in N#Cc1ccccc1	-3.15
in O	1.09
in O=C1CCCCC1	-3.64
in OCCO	-1.8
in OCCOCCO	-2.39
in OCCOCCOCCO	-2.49
in c1ccc2ncccc2c1	-3.18
in c1ccccc1	-3.93

O=C(O)c1cccnc1Nc1cccc(C(F)(F)F)c1
Details	solvation free energy, 298 K [kcal/mol]
in C1COCCO1	-17.9
in CC(C)=O	-17.7
in CCCCCCCCO	-17.1
in CCOC(C)=O	-17.3
in CCOCC	-16.5
in CN(C)C=O	-19.1
in Clc1ccccc1	-15.5
in NC=O	-16.1
in O	-12.8

CCCCCCCCCCCCCCCCCCCCCCCCC
Details	solvation free energy, 298 K [kcal/mol]
in CC(=O)N(C)C	-17.1
in CC(C)(C)O	-15.3
in CN(C)C=O	-17.1
in COC(C)(C)C	-17.1
in O	5.39

CC(=O)Oc1ccccc1
Details	solvation free energy, 298 K [kcal/mol]
in O	-4.78

O=S1OCC2C(CO1)C1(Cl)C(Cl)=C(Cl)C2(Cl)C1(Cl)Cl (stereo unspecified)
Details	solvation free energy, 298 K [kcal/mol]
in CCCCCCCCO	-13

CN(C)N=O
Details	solvation free energy, 298 K [kcal/mol]
in CC(C)CC(C)(C)C	-3.83
in O	-6.02

O=C(c1ccccc1)N(O)c1cccc(Cl)c1
Details	solvation free energy, 298 K [kcal/mol]
in O	-10.9

CCNc1nc(NC(C)C(C)C)nc(SC)n1 (stereo unspecified)
Details	solvation free energy, 298 K [kcal/mol]
in O	-8.73

CC(=O)C(C)C(C)=O
Details	solvation free energy, 298 K [kcal/mol]
in O	-4.75

CCCCCCCC(C)O (stereo unspecified)
Details	solvation free energy, 298 K [kcal/mol]
in O	-3.57

C=C
Details	solvation free energy, 298 K [kcal/mol]
in Brc1ccccc1	-0.52
in C1CCC2CCCCC2C1	-0.46
in C1CCOC1	-0.82
in C1COCCO1	-0.58
in CC1CO1	-0.89
in CC1COC(=O)O1	-0.17
in CC#N	-0.62
in CC(=O)N(C)C	-0.45
in CC(C)(C)O	-0.49
in CC(C)=O	-0.76
in CC(C)CO	-0.46
in CC(C)O	-0.45
in CCC(C)O	-0.44
in CCCCC	-0.69
in CCCCCC	-0.64
in CCCCCCC	-0.62
in CCCCCCCC	-0.6
in CCCCCCCCC	-0.6
in CCCCCCCCCC	-0.57
in CCCCCCCCCCCCCCCC	-0.39
in CCCCCCCCO	-0.37
in CCCCCCCO	-0.43
in CCCCCCO	-0.43
in CCCCCO	-0.48
in CCCCO	-0.46
in CCCO	-0.52
in CCO	-0.56
in CCOCC	-0.97
in CN1CCCC1	-0.32
in CN1CCCC1=O	-0.4
in CN(C)C=O	-0.45
in CN(C)P(=O)(N(C)C)N(C)C	-0.52
in CNC=O	-0.2
in CO	-0.51
in COC(C)=O	-0.75
in COCCOCCOCCOC	-0.25
in CS(C)=O	-0.05
in Cc1cccc(C)c1	-0.61
in ClC(Cl)(Cl)Cl	-0.78
in ClCCCl	-0.49
in Clc1ccccc1	-0.61
in N#Cc1ccccc1	-0.45
in Nc1ccccc1	-0.15
in O	1.28
in O=C1CCCC1	-0.6
in O=C1CCCCC1	-0.55
in OCCCOCCCO	0.06
in OCCO	0.5
in OCc1ccccc1	-0.23
in c1ccccc1	-0.66

Clc1cc(Cl)c(Cl)c(Cl)c1
Details	solvation free energy, 298 K [kcal/mol]
in CCCCCCCCO	-7.57
in O	-1.62

CCNc1ccccc1
Details	solvation free energy, 298 K [kcal/mol]
in O	-4.76
